# Active and inactive are the calls of the source. No cut-off for these calls is given here.
# Key:
# [1] = test system: Mus musculus; test: Antiinflammatory activity against carrageenan-induced paw edema in Swiss mouse at 10 mg/kg, ip measured at 15 to 90 mins administered 30 mins prior to carrageenan-challenge by plethysmometric analysis; assay type: functional
# [2] = test system: Mus musculus; test: Antiinflammatory activity in substance p-induced Swiss mouse peritonitis model assessed as decrease in total number of cells in pertonial cavity at 1 to 10 mg/kg, ip administered for 30 mins prior to substance-P challenge; assay type: functional, organism-based
# [3] = test system: Mus musculus; test: In vivo inhibition of myeloperoxidase activity in bradykinin-induced Swiss mouse peritonitis model at 1 to 100 mg/kg, ip administered prior to bradykinin challenge for 4hrs; assay type: functional, organism-based
# [4] = test system: Mus musculus; test: Antiinflammatory activity in carrageenan-induced Swiss mouse peritonitis model assessed as decrease in total number of cells in pertonial cavity at 100 mg/kg, ip administered 30 mins prior to carrageenan challenge; assay type: functional; design: scale not given: the % may be the effect or the level left
# [5] = test system: Mus musculus; test: Antiinflammatory activity in bradykinin-induced peritonitis ip dosed Swiss mouse model assessed as decrease in total number of cells in pertonial cavity administered for 4 hrs prior to bradykinin challenge; assay type: functional
# [6] = test system: Mus musculus; test: Antiinflammatory activity against bradykinin-induced paw edema in Swiss mouse at 3 mg/kg, ip measured at 15 to 90 mins administered 30 mins prior to bradikynin-challenge by plethysmometric analysis; assay type: functional
# [7] = test system: Mus musculus; test: Antiinflammatory activity against bradykinin-induced paw edema in Swiss mouse at 10 mg/kg, ip measured at 15 to 90 mins administered 30 mins prior to bradikynin-challenge by plethysmometric analysis; assay type: functional
# [8] = test system: Mus musculus; test: Antiinflammatory activity in substance p-induced Swiss mouse peritonitis model assessed as decrease in total number of cells in pertonial cavity at 100 mg/kg, ip administered for 30 mins prior to substance-P challenge; assay type: functional
# [9] = test system: Mus musculus; test: Antiinflammatory activity in bradykinin-induced peritonitis Swiss mouse model assessed as decrease in total number of cells in pertonial cavity at 100 mg/kg, ip administered for 30 mins prior to bradykinin challenge; assay type: functional
# [10] = test system: Mus musculus; test: In vivo inhibition of myeloperoxidase activity in carrageenan-induced Swiss mouse peritonitis model at 1 to 100 mg/kg, ip administered prior to carrageenan challenge for 4hrs; assay type: functional, organism-based
# [11] = test system: Mus musculus; test: Antiinflammatory activity against substance-P-induced paw edema in Swiss mouse at 10 mg/kg, ip measured at 15 to 90 mins administered 30 mins prior to substance p-challenge by plethysmometric analysis; assay type: functional
# [12] = test system: RAW264.7; test: Inhibition of COX2 expression in LPS-stimulated mouse RAW264.7 cells at 12.5 to 50 ug/ml preincubated with the compound followed by LPS stimulation for 24 hrs by Real-Time PCR; assay type: functional, cell-based
# [13] = test system: Mus musculus; test: Antiinflammatory activity in carrageenan-induced Swiss mouse peritonitis model assessed as effect on total number of cells in peritonial cavity at 1 to 10 mg/kg, ip administered 30 mins prior to carrageenan challenge; assay type: functional, organism-based
# [14] = test system: RAW264.7; test: Inhibition of iNOS expression in LPS-stimulated mouse RAW264.7 cells at 12.5 to 50 ug/ml preincubated with the compound followed by LPS stimulation for 24 hrs by Real-Time PCR; assay type: functional, cell-based
# [15] = test system: RAW264.7; test: Cytotoxicity against mouse RAW264.7 cells assessed as cell viability at 100 ug/ml after 24 hrs by MTT assay; assay type: cell-based; settings: raw264.7, 24 h
# [16] = test system: A-375; test: Induction of autophagy in human A375 cells assessed as increase in LC3-2 complex concentration at 65 uM after 1 hr by Western blot analysis; assay type: functional, cell-based
# [17] = test system: Mus musculus; test: Antiinflammatory activity against substance-P-induced paw edema in Swiss mouse at 100 mg/kg, ip measured at 15 to 90 mins administered 30 mins prior to substance p-challenge by plethysmometric analysis; assay type: functional
# [18] = test system: Mus musculus; test: Antiinflammatory activity in bradykinin-induced peritonitis Swiss mouse model assessed as decrease in total number of cells in pertonial cavity at 10 mg/kg, ip administered for 30 mins prior to bradykinin challenge; assay type: functional
# [19] = test system: RAW264.7; test: Inhibition of LPS-induced nitric oxide production in mouse RAW264.7 cells preincubated for 1 hr followed by LPS stimulation by Greiss assay; assay type: functional, cell-based
# [20] = test system: A-375; test: Induction of autophagy in human A375 cells assessed as increase in LC3-2 complex concentration at 65 uM after 6 hrs by Western blot analysis; assay type: functional, cell-based
# [21] = test system: Mus musculus; test: Antiinflammatory activity in bradykinin-induced Swiss mouse peritonitis model assessed as decrease in total number of cells in pertonial cavity at 1 mg/kg, ip administered for 30 mins prior to bradykinin challenge; assay type: functional, organism-based
# [22] = test system: Mus musculus; test: Antiinflammatory activity against carrageenan-induced paw edema in Swiss mouse at 100 mg/kg, ip measured at 15 to 90 mins administered 30 mins prior to carrageenan-challenge by plethysmometric analysis; assay type: functional
# [23] = test system: Mus musculus; test: Antiinflammatory activity against carrageenan-induced paw edema in Swiss mouse at 3 mg/kg, ip measured at 15 to 90 mins administered 30 mins prior to carrageenan-challenge by plethysmometric analysis; assay type: functional
# [24] = test system: Mus musculus; test: Antiinflammatory activity in carrageenan-induced Swiss mouse peritonitis model assessed as decrease in total number of cells in pertonial cavity at 3 mg/kg, ip administered for 4 hrs prior to carrageenan challenge; assay type: functional; design: scale not given: the % may be the effect or the level left
# [25] = test system: Mus musculus; test: Antiinflammatory activity against bradykinin-induced paw edema in Swiss mouse at 100 mg/kg, ip measured at 15 to 90 mins administered 30 mins prior to bradikynin-challenge by plethysmometric analysis; assay type: functional
# [26] = test system: Mus musculus; test: Antiinflammatory activity in bradykinin-induced peritonitis Swiss mouse model assessed as decrease in total number of cells in pertonial cavity at 3 mg/kg, ip administered for 30 mins prior to bradykinin challenge; assay type: functional
# [27] = test system: Mus musculus; test: Antiinflammatory activity in substance p-induced Swiss mouse peritonitis model assessed as decrease in total number of cells in pertonial cavity at 3 mg/kg, ip administered for 30 mins prior to substance-P challenge; assay type: functional
# [28] = test system: Mus musculus; test: Antiinflammatory activity against substance-P-induced paw edema in Swiss mouse at 3 mg/kg, ip measured at 15 to 90 mins administered 30 mins prior to substance p-challenge by plethysmometric analysis; assay type: functional
compound,measurement,setting,value
COc1cc(/C=C/C(=O)/C=C/c2ccc(O)c(OC)c2)ccc1[O-].[Na+],inhibition in vivo at 10 mg/kg,[1],17.2%
same,Activity,[2],inactive
same,inhibition,[3],Active
same,Activity,[4],38.4%
same,ED50,[5],7.6 mg/kg
same,inhibition in vivo at 3 mg/kg,[6],39.2%
same,inhibition in vivo at 10 mg/kg,[7],30.8%
same,inhibition in vivo at 100 mg/kg,[8],40%
same,inhibition in vivo at 100 mg/kg,[9],78.8%
same,inhibition,[10],Active
same,inhibition in vivo at 10 mg/kg,[11],15.4%
same,inhibition,[12],Active
same,Activity,[13],inactive
same,inhibition,[14],Active
same,Activity,[15],Non-toxic
same,Activity,[16],Active
same,inhibition in vivo at 100 mg/kg,[17],31.5%
same,inhibition in vivo at 10 mg/kg,[18],65.4%
same,IC50,[19],7.7 µM
same,Activity,[20],inactive
same,Activity,[21],inactive
same,inhibition in vivo at 100 mg/kg,[22],18.9%
CC(=O)OCC(=O)[C@@]12N=C(C)O[C@@H]1C[C@H]1[C@@H]3CCC4=CC(=O)C=C[C@]4(C)[C@H]3[C@@H](O)C[C@@]12C [DEFLAZACORT],inhibition,[3],Active
same,inhibition in vivo at 3 mg/kg,[23],29.2%
same,Activity,[24],57.1%
same,inhibition in vivo at 100 mg/kg,[25],30.1%
same,inhibition in vivo at 3 mg/kg,[26],46.2%
same,inhibition in vivo at 3 mg/kg,[27],53.3%
same,inhibition,[10],Active
same,inhibition in vivo at 3 mg/kg,[28],32.8%

# — ChEMBL document CHEMBL3785061, “Evaluation of the anti-inflammatory action of curcumin analog (DM1): Effect on iNOS and COX-2 gene expression and autophagy pathways” (Bioorg Med Chem, 2016)
